The values that follow come from patent US9321767B2, “Azabenzimidazoles as respiratory syncytial virus antiviral agents” (JANSSEN SCIENCES IRELAND UC, priority 2010, dated 2016).

One data set deals with rgRSV224 virus. In words: microbe, parasite or virus in culture. Type of data set: cell-based, respiratory syncytial virus (RSV). To be noted: for SI CC50/EC50: ratio of CC50 (HeLa cytotoxicity) to EC50 (RSV). As to the method:
(§1) Black 96-well clear-bottom microtiter plates (Corning, Amsterdam, The Netherlands) were filled in duplicate using a customized robot system with serial 4-fold dilutions of compound in a final volume of 50 μl culture medium [RPMI medium without phenol red, 10% FBS, 0.04% gentamycin (50 mg/mL) and 0.5% DMSO]. Then, 100 μl of a HeLa cell suspension (5×10^4 cells/mL) in culture medium was added to each well followed by the addition of 50 μl rgRSV224 (MOI=0.02) virus in culture medium using a multidrop dispenser (Thermo Scientific, Erembodegem, Belgium). rgRSV224 virus is an engineered virus that includes an additional GFP gene (Hallak et al, 2000) and was in-licensed from the NIH (Bethesda, Md., USA). Medium, virus- and mock-infected controls were included in each test. Cells were incubated at 37° C. in a 5% CO2 atmosphere. Three days post-virus exposure, viral replication was quantified by measuring GFP expression in the cells by a MSM laser microscope (Tibotec, Beerse, Belgium). The EC50 was defined as the 50% inhibitory concentration for GFP expression. In parallel, compounds were incubated for three days in a set of white 96-well microtitier plates (Corning) and the cytotoxicity of compounds in HeLa cells was determined by measuring the ATP content of the cells using the ATPlite kit (PerkinElmer, Zaventem, Belgium) according to the manufacturer's instructions. The CC50 was defined as the 50% concentration for cytotoxicity.

The test system of another data set is HeLa cells. In words: Cytotoxicity in HeLa cells, ATP content (ATPlite kit). Type of data set: cell-based. The settings on record: HeLa cells, three days incubation, ATP content. As to the method: as §1
Where [1] appears, read: rgRSV224 in HeLa cells, three days post-virus exposure, GFP expression, read-out: WT activity EC50.
The mark [2] stands for this setting: human respiratory syncytial virus, HeLa, 72 h, read-out: RSV-wt_EC50.
[3] abbreviates: human respiratory syncytial virus, HeLa, 72 h, read-out: WT activity EC50.

Like-named read-outs stand apart in the source and are kept apart here. A value given as a limit tells only on which side of the number the result lay.

Regarding `NC(=O)NCCCCn1c(Cn2c(=O)n(C3CC3)c3ccncc32)nc2nc(Cl)ccc21` [Compound 74], in the data set on rgRSV224 virus, the “SI CC50/EC50” value is on record as more than 1997. In addition, in the data set with rgRSV224 virus (setting [1]), the EC50 came out at 0.00501 µM. For the compound `O=c1n(Cc2nc3cc(Br)cnc3n2CCCCO)c2cnccc2n1C1COC1` [Compound 20, 3-((6-bromo-3-(4-hydroxybutyl)-3H-imidazo[4,5-b]pyridin-2-yl)methyl)-1-(oxetan-3-yl)-1H-imidazo[4,5-c]pyridin-2(3H)-one], in the data set on rgRSV224 virus (setting [2]), the EC50 amounted to 0.0361 µM. Further, the TOX-HELA_EC50 in the data set with HeLa cells was more than 9.836 µM.

As for `O=c1n(Cc2nc3ncccc3n2CCCc2ccccn2)c2cnccc2n1C1CC1` [Compound 94], the “SI CC50/EC50” value with rgRSV224 virus is reported as more than 748. Also, the EC50 in the data set on rgRSV224 virus (setting [1]) came out at 0.126 µM. `O=c1n(Cc2nc3ncccc3n2CCCCF)c2cnccc2n1CC(F)(F)F` [Compound 85]: the “SI CC50/EC50” value with rgRSV224 virus came to 1436. The EC50 in the data set with rgRSV224 virus (setting [1]) worked out at 0.00854 µM. In the same order, the values of `O=C(Nc1ccc(F)c(Cl)c1)OCCCCn1c(Cn2c(=O)n(C3CC3)c3ccncc32)nc2nc(Cl)ccc21` [Compound 84] are 354 and 0.0189 µM. As for `N#CCCCn1c(Cn2c(=O)n(C3CC3)c3ccncc32)nc2ccc(Cl)nc21` [Compound 49], the EC50 in the data set with rgRSV224 virus (setting [3]) came to 1.45 µM. In addition, in the data set on rgRSV224 virus, the “SI CC50/EC50” value is reported as more than 68.

On to `O=c1n(Cc2nc3ncccc3n2CCCc2ccccc2)c2cc(F)ccc2n1C1CC1` [Compound 93], for which the “SI CC50/EC50” value in the data set on rgRSV224 virus is listed as more than 3176. For the same compound, the EC50 in the data set on rgRSV224 virus (setting [1]) was determined as 0.0315 µM. Regarding `CC(C)CCn1c(Cn2c(=O)n(C3CC3)c3ccncc32)nc2cc(C(=O)O)cnc21` [Compound 28, 2-((1-cyclopropyl-2-oxo-1H-imidazo[4,5-c]pyridin-3(2H)-yl)methyl)-3-isopentyl-3H-imidazo[4,5-b]pyridine-6-carboxylic acid], the EC50 with rgRSV224 virus (setting [2]) was more than 49.2 µM. Also, in the data set on HeLa cells, the TOX-HELA_EC50 was more than 49.1802 µM. Take `CN(C)c1nccc2c1nc(Cn1c(=O)n(C3CC3)c3ccncc31)n2CCCCO` [Compound 37]: the EC50 with rgRSV224 virus (setting [2]) worked out at 0.274 µM. The TOX-HELA_EC50 in the data set with HeLa cells was more than 9.836 µM. For `CC(C)CCn1c(Cn2c(=O)n(C3CC3)c3ccncc32)nc2nc(C(F)(F)F)ccc21` [Compound 44, 1-cyclopropyl-3-((1-isopentyl-5-(trifluoromethyl)-1H-imidazo[4,5-b]pyridin-2-yl)methyl)-1H-imidazo[4,5-c]pyridin-2(3H)-one] the same measures were 0.019 µM and more than 98.3603 µM.

Turning to `COC(=O)c1nccc2c1n(Cc1nc3nc(Cl)ccc3n1CCCCO)c(=O)n2C1CC1` [Compound 62], in the data set with rgRSV224 virus (setting [3]), the EC50 came to 0.294 µM. For the same compound, the “SI CC50/EC50” value in the data set on rgRSV224 virus was more than 339. For `CC(C)CCn1c(Cn2c(=O)n(C3CC3)c3ccc(F)cc32)nc2cnccc21` [Compound 32], the EC50 with rgRSV224 virus (setting [2]) came out at 0.0113 µM. The TOX-HELA_EC50 in the data set on HeLa cells is more than 9.836 µM. For `CC(C)(C)C(=O)OCCCCn1c(Cn2c(=O)n(C3CC3)c3ccncc32)nc2nc(Cl)ccc21` [Compound 3, 4-(5-chloro-2-((1-cyclopropyl-2-oxo-1H-imidazo[4,5-c]pyridin-3(2H)-yl)methyl)-1H-imidazo[4,5-b]pyridin-1yl)butyl pivalate] the same measures were 0.00329 µM and more than 9.836 µM.

With `CC1=C(NCCCCn2c(Cn3c(=O)n(C4CC4)c4ccncc43)nc3nc(Cl)ccc32)c2ccccc2S1(=O)=O` [Compound 80], the “SI CC50/EC50” value in the data set on rgRSV224 virus was more than 9628. For the same compound, the EC50 in the data set with rgRSV224 virus (setting [1]) came out at 0.0104 µM. For `O=C1c2ccccc2C(=O)N1CCCCn1c(Cn2c(=O)n(C3CC3)c3ccncc32)nc2nc(Cl)ccc21` [Compound 66] the same measures were more than 16939 and 0.0059 µM.

Turning to `CC(C)C(=O)OCCCCn1c(Cn2c(=O)n(C3CC3)c3ccncc32)nc2nc(Cl)ccc21` [Compound 65], the “SI CC50/EC50” value in the data set with rgRSV224 virus is reported as more than 18110. Also, the EC50 in the data set with rgRSV224 virus (setting [1]) is 0.00552 µM. For `O=c1n(Cc2nc3ncccc3n2CCCC(F)(F)F)c2cnccc2n1CC(F)(F)F` [Compound 72] the same measures were more than 2766 and 0.00361 µM.

Turning to `O=c1n(Cc2nc3nc(F)ccc3n2CCCC(F)(F)F)c2cnccc2n1C1CC1` [Compound 69], the “SI CC50/EC50” value in the data set with rgRSV224 virus was more than 1318. Further, the EC50 in the data set on rgRSV224 virus (setting [1]) is 0.0758 µM. As to `O=C(NCCCCn1c(Cn2c(=O)n(C3CC3)c3ccncc32)nc2nc(Cl)ccc21)OCCF` [Compound 76], the “SI CC50/EC50” value in the data set with rgRSV224 virus is more than 24518. Also, the EC50 in the data set with rgRSV224 virus (setting [1]) was 0.00408 µM. Regarding `O=c1n(Cc2nc3nc(Cl)ccc3n2CCCC(F)(F)F)c2cc(F)ccc2n1CC(F)(F)F` [Compound 87], the “SI CC50/EC50” value in the data set on rgRSV224 virus is listed as more than 49069. In the data set with rgRSV224 virus (setting [1]), the EC50 amounted to 0.00204 µM.

For `CC(O)CCCn1c(Cn2c(=O)n(C3CC3)c3ccncc32)nc2nc(Cl)ccc21` (stereo not shown) [Compound 67, 3-{[5-chloro-1-(4-hydroxypentyl)-1H-imidazo[4,5-b]pyridin-2-yl]methyl}-1-cyclopropyl-1,3-dihydro-2H-imidazo[4,5-c]pyridin-2-one], in the data set on rgRSV224 virus (setting [3]), the EC50 amounted to 0.00791 µM. Further, the “SI CC50/EC50” value in the data set with rgRSV224 virus is on record as more than 12643. On to `O=C(Nc1ccc(Cl)cc1)OCCCCn1c(Cn2c(=O)n(C3CC3)c3ccncc32)nc2nc(Cl)ccc21` [Compound 86], for which, in the data set with rgRSV224 virus, the “SI CC50/EC50” value is 263. The EC50 in the data set on rgRSV224 virus (setting [1]) came to 0.0368 µM. In the same order, the values of `CC(C)(CO)CCn1c(Cn2c(=O)n(C3CC3)c3ccncc32)nc2nc(Cl)ccc21` [Compound 88] are more than 4517 and 0.0111 µM.

For `CC(=O)OCCCCn1c(Cn2c(=O)n(C3CC3)c3ccncc32)nc2nc(Cl)ccc21` [Compound 64], the “SI CC50/EC50” value in the data set with rgRSV224 virus is recorded as more than 18058. For the same compound, in the data set on rgRSV224 virus (setting [1]), the EC50 amounted to 0.00554 µM. For `O=c1n(Cc2nc3ncccc3n2CCCc2ccccc2)c2cnccc2n1C1CC1` [Compound 91] the same measures were more than 8223 and 0.0122 µM. In the same order, the values of `CC(C)OC(=O)NCCCCn1c(Cn2c(=O)n(C3CC3)c3ccncc32)nc2ncccc21` [Compound 81] are more than 1380 and 0.0724 µM. Regarding `CC(C)(O)CCCn1c(Cn2c(=O)n(C3CC3)c3ccncc32)nc2nc(Cl)ccc21` [Compound 75, 3-((5-chloro-1-(4-hydroxy-4-methylpentyl)-1H-imidazo[4,5-b]pyridin-2-yl)methyl)-1-cyclopropyl-1H-imidazo[4,5-c]pyridin-2 (3H)-one], the EC50 in the data set with rgRSV224 virus (setting [3]) is 0.00158 µM. Also, the “SI CC50/EC50” value with rgRSV224 virus is recorded as more than 63325. As for `O=c1n(Cc2nc3ncccc3n2CCCC(F)F)c2cnccc2n1C1CC1` [Compound 43, 1-cyclopropyl-3-((1-(4,4-difluorobutyl)-1H-imidazo[4,5-b]pyridin-2-yl)methyl)-1H-imidazo[4,5-c]pyridin-2(3H)-one], in the data set on rgRSV224 virus (setting [3]), the EC50 was determined as 0.00791 µM. The “SI CC50/EC50” value in the data set on rgRSV224 virus is 7161. Regarding `COC(=O)NCCCCn1c(Cn2c(=O)n(C3CC3)c3ccncc32)nc2nc(Cl)ccc21` [Compound 68], the “SI CC50/EC50” value in the data set on rgRSV224 virus is listed as more than 12208. Besides, in the data set with rgRSV224 virus (setting [1]), the EC50 turned out to be 0.00819 µM.

Regarding `O=C(Nc1ccc(F)cc1C(F)(F)F)OCCCCn1c(Cn2c(=O)n(C3CC3)c3ccncc32)nc2nc(Cl)ccc21` [Compound 83], the “SI CC50/EC50” value in the data set on rgRSV224 virus was 4731. Also, the EC50 in the data set on rgRSV224 virus (setting [1]) worked out at 0.014 µM. In the same order, the values of `CC(C)CCn1c(Cn2c(=O)n(CC(F)(F)F)c3ccncc32)nc2nc(Cl)ccc21` [Compound 90] are 36156 and 0.0026 µM.

For the compound `O=C(NCCCCn1c(Cn2c(=O)n(C3CC3)c3ccncc32)nc2nc(Cl)ccc21)OC1CCCC1` [Compound 82], the “SI CC50/EC50” value with rgRSV224 virus came to 5649. The EC50 with rgRSV224 virus (setting [1]) came out at 0.0171 µM. In the same order, the values of `O=c1n(Cc2nc3ncccc3n2CCCC(F)(F)F)c2cc(F)ccc2n1CC(F)(F)F` [Compound 89] are more than 2037 and 0.0491 µM. For `O=C(NC1CCCC1)OCCCCn1c(Cn2c(=O)n(C3CC3)c3ccncc32)nc2nc(Cl)ccc21` [Compound 78] the same measures were 14406 and 0.00573 µM. For `O=c1n(Cc2nc3nc(Cl)ccc3n2CCCC(F)(F)F)c2cnccc2n1CC(F)(F)F` [Compound 71] the same measures were more than 108383 and 0.000923 µM. On to `O=c1n(Cc2nc3ncccc3n2CCCOC(F)(F)F)c2cnccc2n1C1CC1` [Compound 70], for which the “SI CC50/EC50” value with rgRSV224 virus is more than 9116. Moreover, the EC50 in the data set with rgRSV224 virus (setting [1]) amounted to 0.011 µM. `CC(C)CCn1c(Cn2c(=O)n(C3CC3)c3ccccc32)nc2cc(Br)cnc21` [Compound 30, 1-((6-bromo-3-isopentyl-3H-imidazo[4,5-b]pyridin-2-yl)methyl)-3-cyclopropyl-1H-benzo[d]imidazol-2(3H)-one]: in the data set on HeLa cells, the TOX-HELA_EC50 was more than 9.84 µM.

Regarding `COc1ccc(NC(=O)OCCCCn2c(Cn3c(=O)n(C4CC4)c4ccncc43)nc3nc(Cl)ccc32)cc1` [Compound 79], in the data set on rgRSV224 virus, the “SI CC50/EC50” value was determined as 1711. For the same compound, the EC50 with rgRSV224 virus (setting [1]) turned out to be 0.0233 µM. Take `CC(C)CCn1c(Cn2c(=O)n(C3CC3)c3ccncc32)nc2nc(C(=N)N)ccc21` [Compound 105]: in the data set on rgRSV224 virus (setting [3]), the EC50 was 0.000316 µM. For the same compound, the “SI CC50/EC50” value with rgRSV224 virus is recorded as more than 330179.

On to `CC(C)CCn1c(Cn2c(=O)n(CC(F)(F)F)c3ccc(F)cc32)nc2nc(Cl)ccc21` [Compound 92], for which, in the data set on rgRSV224 virus, the “SI CC50/EC50” value is given as 13572. In the data set with rgRSV224 virus (setting [1]), the EC50 amounted to 0.00672 µM.
